What was measured:
hPDE3B = test: In vitro assay PDE3 (SPA, 3H-cAMP); format: biochemical, human
PDE2A = biological target: T1, PDE2A (Rattus norvegicus, UniProt Q01062); test: PDE2 occupancy by ex-vivo autoradiography with [3H]B-17a; format: in vivo; settings: rat
T1 construct: from tissue; host or cells: rat brain striatal sections (ex vivo)
T1 sequence (Q01062 1-928): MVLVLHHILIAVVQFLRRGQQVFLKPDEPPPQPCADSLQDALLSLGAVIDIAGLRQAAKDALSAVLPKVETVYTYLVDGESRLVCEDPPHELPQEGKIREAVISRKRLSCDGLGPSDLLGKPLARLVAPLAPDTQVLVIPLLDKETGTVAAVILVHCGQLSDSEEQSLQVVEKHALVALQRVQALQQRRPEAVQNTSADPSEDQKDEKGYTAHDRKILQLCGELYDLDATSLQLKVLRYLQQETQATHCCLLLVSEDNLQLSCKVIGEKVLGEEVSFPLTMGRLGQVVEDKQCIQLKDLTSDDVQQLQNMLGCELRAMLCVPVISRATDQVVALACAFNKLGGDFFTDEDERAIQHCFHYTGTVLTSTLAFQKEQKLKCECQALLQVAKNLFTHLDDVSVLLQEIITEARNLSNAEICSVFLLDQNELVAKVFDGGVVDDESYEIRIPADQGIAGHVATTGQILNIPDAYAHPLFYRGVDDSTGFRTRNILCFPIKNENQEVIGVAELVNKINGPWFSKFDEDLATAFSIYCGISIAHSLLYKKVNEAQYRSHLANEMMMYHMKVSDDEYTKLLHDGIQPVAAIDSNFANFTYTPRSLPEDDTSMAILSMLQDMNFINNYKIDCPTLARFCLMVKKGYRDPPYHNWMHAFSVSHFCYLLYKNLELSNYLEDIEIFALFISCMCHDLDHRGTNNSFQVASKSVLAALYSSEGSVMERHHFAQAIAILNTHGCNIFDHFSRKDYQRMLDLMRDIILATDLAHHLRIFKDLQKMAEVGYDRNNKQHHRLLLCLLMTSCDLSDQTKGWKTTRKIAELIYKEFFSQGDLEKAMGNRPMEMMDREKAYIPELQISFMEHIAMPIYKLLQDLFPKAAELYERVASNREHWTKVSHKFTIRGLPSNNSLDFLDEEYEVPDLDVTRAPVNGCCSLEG

Compound: C[C@@H]1CCN(c2nccc3ccc(Br)cc23)C[C@H]1c1cc(C(F)F)nc2ncnn12 [Compound 1]
- hPDE3B Emax (hPDE3B): 73
- hPDE3B pIC50 (hPDE3B; 0.4 μM cAMP substrate): 5.25
- receptor occupancy at 10 mg/kg (PDE2A; po, read-out: PDE2 occupancy at 10 mg/kg, route PO (oral), 10 mg/kg, male Wistar rats, striatum, percentage occupancy): 94%
- ED50 (PDE2A; sc, read-out: PDE occupancy ED50, route SC (subcutaneous), male Wistar rats, dose producing 50% occupancy): 6.7 mg/kg
